Source: US8192962B2, “Processes for detecting toxic substances” (Daikin Industries, Ltd., priority 2001, dated 2012)

Tested on: Genes belonging to other category
Assay: DNA chip mRNA expression in yeast, genes belonging to other category (Table 9)
Format: cell-based, Saccharomyces cerevisiae S288C
In short: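 First, S288C yeast grown in YPD at 25° C. are dosed in log phase with one toxicant (growth-inhibiting, not lethal) for 2 h. Next, total RNA is extracted and poly(A) mRNA isolated and reverse-transcribed with Cy3/Cy5-dUTP. Finally, whole-genome chip fluorescence is read relative to unexposed cells.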

## CCCCCCCCCCCCOS(=O)(=O)[O-].[Na+] [(18), sodium lauryl sulfate]
Yeast gene YMR219W
  The level of expressed mRNA in the presence of chemical substance/The level of expressed mRNA in the absence of chemical substance: 0.9
Yeast gene YMR226C
  The level of expressed mRNA in the presence of chemical substance/The level of expressed mRNA in the absence of chemical substance: 2.0
Yeast gene YMR275C
  The level of expressed mRNA in the presence of chemical substance/The level of expressed mRNA in the absence of chemical substance: 0.7
Yeast gene YMR276W
  The level of expressed mRNA in the presence of chemical substance/The level of expressed mRNA in the absence of chemical substance: 0.7
Yeast gene YMR297W
  The level of expressed mRNA in the presence of chemical substance/The level of expressed mRNA in the absence of chemical substance: 1.4
Yeast gene YMR314W
  The level of expressed mRNA in the presence of chemical substance/The level of expressed mRNA in the absence of chemical substance: 1.6
Yeast gene YNL006W
  The level of expressed mRNA in the presence of chemical substance/The level of expressed mRNA in the absence of chemical substance: 1.3
Yeast gene YNL007C
  The level of expressed mRNA in the presence of chemical substance/The level of expressed mRNA in the absence of chemical substance: 1.0
Yeast gene YNL036W
  The level of expressed mRNA in the presence of chemical substance/The level of expressed mRNA in the absence of chemical substance: 1.9
Yeast gene YNL093W
  The level of expressed mRNA in the presence of chemical substance/The level of expressed mRNA in the absence of chemical substance: 3.1
Yeast gene YNL196C
  The level of expressed mRNA in the presence of chemical substance/The level of expressed mRNA in the absence of chemical substance: 1.2
Yeast gene YNL333W
  The level of expressed mRNA in the presence of chemical substance/The level of expressed mRNA in the absence of chemical substance: 1.1
Yeast gene YNL335W
  The level of expressed mRNA in the presence of chemical substance/The level of expressed mRNA in the absence of chemical substance: 1.1
Yeast gene YNR006W
  The level of expressed mRNA in the presence of chemical substance/The level of expressed mRNA in the absence of chemical substance: 1.2
Yeast gene YNR010W
  The level of expressed mRNA in the presence of chemical substance/The level of expressed mRNA in the absence of chemical substance: 2.3
Yeast gene YNR069C
  The level of expressed mRNA in the presence of chemical substance/The level of expressed mRNA in the absence of chemical substance: 0.9
Yeast gene YOL005C
  The level of expressed mRNA in the presence of chemical substance/The level of expressed mRNA in the absence of chemical substance: 1.2
Yeast gene YOL013C
  The level of expressed mRNA in the presence of chemical substance/The level of expressed mRNA in the absence of chemical substance: 1.4
Yeast gene YOL016C
  The level of expressed mRNA in the presence of chemical substance/The level of expressed mRNA in the absence of chemical substance: 3.8
Yeast gene YOL152W
  The level of expressed mRNA in the presence of chemical substance/The level of expressed mRNA in the absence of chemical substance: 1.2
Yeast gene YOL164W
  The level of expressed mRNA in the presence of chemical substance/The level of expressed mRNA in the absence of chemical substance: 1.3
Yeast gene YOR003W
  The level of expressed mRNA in the presence of chemical substance/The level of expressed mRNA in the absence of chemical substance: 1.1
Yeast gene YOR036W
  The level of expressed mRNA in the presence of chemical substance/The level of expressed mRNA in the absence of chemical substance: 1.7
Yeast gene YOR117W
  The level of expressed mRNA in the presence of chemical substance/The level of expressed mRNA in the absence of chemical substance: 0.9
Yeast gene YOR124C
  The level of expressed mRNA in the presence of chemical substance/The level of expressed mRNA in the absence of chemical substance: 1.0
Yeast gene YOR132W
  The level of expressed mRNA in the presence of chemical substance/The level of expressed mRNA in the absence of chemical substance: 1.6
Yeast gene YOR133W
  The level of expressed mRNA in the presence of chemical substance/The level of expressed mRNA in the absence of chemical substance: 1.2
Yeast gene YOR157C
  The level of expressed mRNA in the presence of chemical substance/The level of expressed mRNA in the absence of chemical substance: 1.2
Yeast gene YOR181W
  The level of expressed mRNA in the presence of chemical substance/The level of expressed mRNA in the absence of chemical substance: 0.6
Yeast gene YOR185C
  The level of expressed mRNA in the presence of chemical substance/The level of expressed mRNA in the absence of chemical substance: 1.1
Yeast gene YOR198C
  The level of expressed mRNA in the presence of chemical substance/The level of expressed mRNA in the absence of chemical substance: 1.5
Yeast gene YOR259C
  The level of expressed mRNA in the presence of chemical substance/The level of expressed mRNA in the absence of chemical substance: 1.5
Yeast gene YOR261C
  The level of expressed mRNA in the presence of chemical substance/The level of expressed mRNA in the absence of chemical substance: 1.9
Yeast gene YOR265W
  The level of expressed mRNA in the presence of chemical substance/The level of expressed mRNA in the absence of chemical substance: 1.2
Yeast gene YOR288C
  The level of expressed mRNA in the presence of chemical substance/The level of expressed mRNA in the absence of chemical substance: 1.6
Yeast gene YOR355W
  The level of expressed mRNA in the presence of chemical substance/The level of expressed mRNA in the absence of chemical substance: 0.9
Yeast gene YOR383C
  The level of expressed mRNA in the presence of chemical substance/The level of expressed mRNA in the absence of chemical substance: 1.1
Yeast gene YPL001W
  The level of expressed mRNA in the presence of chemical substance/The level of expressed mRNA in the absence of chemical substance: 1.2
Yeast gene YPL089C
  The level of expressed mRNA in the presence of chemical substance/The level of expressed mRNA in the absence of chemical substance: 1.1
Yeast gene YPL109C
  The level of expressed mRNA in the presence of chemical substance/The level of expressed mRNA in the absence of chemical substance: 1.2
Yeast gene YPL124W
  The level of expressed mRNA in the presence of chemical substance/The level of expressed mRNA in the absence of chemical substance: 1.2
Yeast gene YPL149W
  The level of expressed mRNA in the presence of chemical substance/The level of expressed mRNA in the absence of chemical substance: 2.9
Yeast gene YPL154C
  The level of expressed mRNA in the presence of chemical substance/The level of expressed mRNA in the absence of chemical substance: 2.0
Yeast gene YPL220W
  The level of expressed mRNA in the presence of chemical substance/The level of expressed mRNA in the absence of chemical substance: 1.1
Yeast gene YPR066W
  The level of expressed mRNA in the presence of chemical substance/The level of expressed mRNA in the absence of chemical substance: 1.2
Yeast gene YPR086W
  The level of expressed mRNA in the presence of chemical substance/The level of expressed mRNA in the absence of chemical substance: 1.2
Yeast gene YPR103W
  The level of expressed mRNA in the presence of chemical substance/The level of expressed mRNA in the absence of chemical substance: 1.5
Yeast gene YPR108W
  The level of expressed mRNA in the presence of chemical substance/The level of expressed mRNA in the absence of chemical substance: 1.3
